Experimental data: patent US8242101B2, “Leukemia treatment method and composition” (University of South Florida, priority 2003, dated 2012)
“Also recorded” adds a separate entry of the source.

Tests used:
[1] = system: FLT-3 and p-FLT-3 on MV cells; assay: Flow cytometry (FCM) assay of surface FLT-3 and p-FLT-3 on MV cells; assay type: cell-based, human; conditions: for surface expression of p-FLT-3: FCM
Experimental: (§1) Simultaneous measurement of surface FLT-3 kinase and Phospho (P Y591) FLT-3 kinase in Acute Leukemic cells using a flow cytometric assay.
(§2) Leukemic cells are harvested by spinning at 1000 rpm at 4 deg for 5 minutes. The cells are washed twice with cold PBS (1×). Equal numbers of cells are utilized for FLT-3 and p-FLT-3 analyses.
(§3) In the assay to detect surface FLT-3 expression, shown in FIG. 8, the cells 10 are incubated on ice for thirty minutes 20 in PBS (1×) 30 containing 3% FBS (blocking buffer) 40. Subsequently, the cells are washed twice with cold PBS (1×). Cells are then incubated with either 0.2 Tg of anti-FLT-3 antibody 50 (sc-19635, Santa Cruz Biotechnology, Calif.) or concentration-matched isotype, control antibody (IgG1, Caltag, Burlingame, Calif.) 60 diluted in the blocking buffer and kept on ice for one hour 70. Cells are then washed twice in PBS (1×) and incubated in FITC-conjugated secondary antibody (Molecular Probes, Eugene, Oreg.) 80 for additional thirty minutes on ice 90. The cells are then rinsed twice with PBS (1×) and resuspended in 400 TL PBS (1×) 100. The fluorescence is measured by FACScan Cytometer (San Jose, Calif.).
To determine the p-FLT-3 expression, leukemia cells are fixed and permeabilized. Referring now to the flowchart in FIG. 9, cells 10 are fixed in 1% formaldehyde 20 at 37 degrees for ten minutes 30, followed by incubation on ice for ten minutes. Cells are then spun down and permeabilized by resuspending them in ice cold 90% methanol 40 for thirty minutes. Following this, cells are washed twice in the blocking buffer (PBS (1×) containing 0.5% BSA) 50 and then incubated in the blocking buffer for an additional ten minutes at room temperature (RT) 60. Next, to the cells, either 0.4 Tg of monoclonal antibody to p-FLT-3 (Cell Signaling, Beverley, Mass.) 70 or isotype control antibody (IgG2b, Caltag, Burlingame, Calif.) 80 is added and cells are then incubated at RT for thirty minutes 90. […] After thirty minutes of incubation 110, cells are washed twice with PBS (1×) and resuspended in 400 TI of PBS (1×) 120 and analyzed by FACScan 130.

[2] = system: MV4-11 (MV) cells; assay: Cell cycle status and apoptosis of MV4-11 cells; assay type: cell-based, human
[3] = system: p-FLT-3, p-AKT and p-ERK1/2; assay: Western analyses of FLT-3, AKT, ERK1/2 and their phospho forms in MV cells; assay type: cell-based, human
[4] = system: histone H3 and H4, p21; assay: Histone acetylation and p21 levels in AML cells; assay type: cell-based, human; conditions: LAQ824 10 to 100 nM
[5] = system: Hsp-90; assay: Hsp-90 acetylation, ATP binding and chaperone activities; assay type: cell-based; conditions: earlier work of the inventors
[6] = system: FLT-3 and p-FLT-3 in RS cells; assay: FLT-3 and p-FLT-3 levels in RS cells by Western and FCM analyses; assay type: cell-based, human
Experimental: as §1, §2, §3
To determine the p-FLT-3 expression, leukemia cells are fixed and permeabilized. […] After thirty minutes of incubation 110, cells are washed twice with PBS (1×) and resuspended in 400 TI of PBS (1×) 120 and analyzed by FACScan 130.

SMILES	surface expression of p-FLT-3 [1]	apoptosis, MV compared with RS cells ([2]; 20 to 200 nM PKC412, dose-dependent)	cell cycle G1 phase accumulation ([2]; exposure to 20 to 200 nM PKC412)	p-FLT-3, p-AKT and p-ERK1/2 levels ([3]; Western analyses, 20 to 200 nM PKC412)	FLT-3 and p-FLT-3 levels ([1]; Western and FCM analyses)	acetylation of histone H3 and H4 [4]	p21 levels [4]	apoptosis ([2]; MV4-11 cells, single agent, FIG. 2 and FIG. 3)	acetylation of Hsp-90, its ATP binding and chaperone activities [5]	FLT-3 and p-FLT-3 levels [6]	levels of p-FLT-3, p-AKT and p-ERK1/2 ([3]; LAQ824 20 to 100 nM)	FLT-3, P-AKT and P-ERK levels ([3]; MV4-11 cells, immunoblots, FIG. 3)
CO[C@@H]1[C@H](N(C)C(=O)c2ccccc2)C[C@H]2O[C@]1(C)n1c3ccccc3c3c4c(c5c6ccccc6n2c5c31)C(=O)NC4 [PKC412]	inhibited the surface expression of p-FLT-3	significantly more apoptosis of MV than RS cells	induced cell cycle G1 phase accumulation	marked attenuation of p-FLT-3, p-AKT and p-ERK1/2	–	–	–	–	–	–	–	–
O=C(/C=C/c1ccc(CN(CCO)CCc2c[nH]c3ccccc23)cc1)NO [LAQ824]	attenuates cell surface p-FLY-3 expression	–	–	–	attenuated both FLT-3 and p-FLT-3 levels in a dose-dependent manner	induced the acetylation of histone H3 and H4	increases p21; also recorded: increased p21 levels	induces apoptosis of MV4-11 cells; also recorded: inducing apoptosis of MV4-11 cells	induces acetylation of Hsp-90 and inhibition of its ATP binding and chaperone activities	attenuated both FLT-3 and p-FLT-3 levels in a dose-dependent manner	down regulated the levels of p-FLT-3, p-AKT and p-ERK1/2	attenuates FLT-3, P-AKT, and P-ERK
